pEC50, pIC50: −log10 of the molar value. Read-outs that look alike come from different tables or passages of the source.
Assays:
HIV-1RF = assay: Anti-HIV-1 efficacy in CEM-SS cells infected with HIV-1RF (MTS staining); type: cell-based; details: for pIC50: read-out: In vitro Activity IC50
Protocol: (§1) Compounds were tested at a 1.0 μM high-test concentration in DMSO. CEM-SS cells were passaged in T-75 flasks prior to use in the antiviral assay. On the day preceding the assay, the cells were split 1:2 in order to assure they were in exponential growth phase at the time of infection. Total cell and viability quantification was performed using a hemacytometer and trypan blue exclusion. Cell viability was greater than 95% for the cells to be utilized in the assay. The cells were resuspended at 5×10^4 cells/mL in tissue culture medium and added to the drug-containing microtiter plates in a volume of 50 μL.
The virus used was the lymphocytropic virus strain HIV-1RF. This virus was obtained from the NIH AIDS research and Reference Reagent Program and was grown in CEM-SS cells for the production of stock virus pools. For each assay, a pre-titered aliquot of virus was removed from the freezer and allowed to thaw slowly to room temperature in a biological safety cabinet. The virus was resuspended and diluted into tissue culture medium such that the amount of virus added to each well in a volume of 50 μL was the amount determined to give approximately 90% cell killing in six days post-infection.
(§2) Each plate contains cell control wells (cells only), virus control wells (cells plus virus), compound cytotoxicity wells (cells plus compound only), compound colorimetric control wells (compound only), as well as experimental wells (compound plus cells plus virus). Samples were evaluated with triplicate measurements for antiviral efficacy and duplicate measurements for cytotoxicity. Six concentrations at half-log dilutions were used in order to determine the IC50 values and to measure cellular cytotoxicity, if detectable.
(§3) At assay termination, the assay plates were stained with the soluble tetrazolium-based dye MTS (CellTiter Reagent, Promega) to determine cell viability and quantify compound cytotoxicity. […] At termination of the assay, 20 μL of MTS reagent was added per well. The wells were incubated for four to six hours at 37° C. Adhesive plate sealers were used in place of the lids, the seal plate was inverted several times to mix the soluble formazan product and the plate was read spectrophotometrically at 490/650 nm with a Molecular Devices Vmax plate reader.

CEM-SS cells = assay: in vitro
Protocol: as §1, §2, §3

in vitro = details: human
Protocol: as §1, §2, §3

retroviral protease = molecular target: T1, retroviral protease (Human immunodeficiency virus type 1 group M subtype B, UniProt P04585); assay: Cell-free assay of protease inhibitor conjugates; type: biochemical; details: for IC50-fold change / IC90 fold change: relative to atazanavir
T1 construct: any small molecule that can reduce the activity of a retroviral protease

[1] = Table 1, CEM-SS cells, HIV-1RF, 50% inhibition of virus replication, 1.0 μM high-test concentration
[2] = Table 2, atazanavir conjugates, read-out: CEM-SS/HIV-1RF EC50
[3] = Table 4, CEM-SS/HIV-1RF, read-out: EC50
[4] = Human immunodeficiency virus 1, CEM-SS, Table 2, atazanavir conjugates, read-out: CEM-SS/HIV-1RF EC50
[5] = Human immunodeficiency virus 1, Table 4, CEM-SS/HIV-1RF, read-out: EC50
[6] = IC50, Table 3, cell-free assay, atazanavir conjugates
[7] = Table 3, cell-free assay, atazanavir conjugates, read-out: IC50
[8] = Table 3, cell-free assay, atazanavir conjugates, read-out: IC90

15-di-m-PEG-7-NCO-Saquinavir [di-15-m-PEG-7-NCO-Saquinavir]
pIC50 (HIV-1RF; [1]): 6.25 | CC50 (CEM-SS cells): > 1 µM

15-m-PEG-7-NHCO-Saquinavir
pIC50 (HIV-1RF; [1]): 7.30 | CC50 (CEM-SS cells): > 1 µM

26-m-PEG-3-O-Saquinavir
In vitro Activity IC50 (HIV-1RF; [1]): no activity | CC50 (CEM-SS cells): > 1 µM

26-m-PEG-7-O-Saquinavir
In vitro Activity IC50 (HIV-1RF; [1]): no activity | CC50 (CEM-SS cells): > 1 µM

Cc1cn([C@H]2C[C@H](N=[N+]=[N-])[C@@H](CO)O2)c(=O)[nH]c1=O [AZT, reference compound]
pEC50 (HIV-1RF; [2]): 9.00 | pEC50 (HIV-1RF; [3]): 9.00 | pEC50 (HIV-1RF; Table 5, tipranavir conjugates in cell-based assay, read-out: CEM-SS/HIV-1RF EC50): 8.70 | pEC50 (HIV-1RF; Table 7, darunavir conjugates in cell-based assay, read-out: CEM-SS/HIV-1RF EC50): 8.30 | CC50 (CEM-SS cells): > 1 µM

COC(=O)N[C@H](C(=O)N[C@@H](Cc1ccccc1)[C@@H](O)CN(Cc1ccc(-c2ccccn2)cc1)NC(=O)[C@@H](NC(=O)OC)C(C)(C)C)C(C)(C)C [Atazanavir, atazanavir, reference compound]
pEC50 (HIV-1RF; [4]): 7.92 | pEC50 (HIV-1RF; [5]): 7.92 | CC50 (in vitro): 54.9 µM | IC90 (retroviral protease): 0.0318 µM | pIC50 (retroviral protease; [6]): 8.16 | IC50-fold change (retroviral protease; Table 3, cell-free assay): 1.0 | IC90 fold change (retroviral protease; Table 3, cell-free assay): 1.0

CC(C)CN(C[C@@H](O)[C@H](Cc1ccccc1)NC(=O)O[C@H]1CO[C@H]2OCC[C@H]21)S(=O)(=O)c1ccc(N)cc1 [Darunavir, darunavir, reference compound]
pEC50 (HIV-1RF; Human immunodeficiency virus 1, CEM-SS, read-out: CEM-SS/HIV-1RF EC50): > 9.15

CC(C)(C)NC(=O)[C@@H]1C[C@@H]2CCCC[C@@H]2CN1C[C@@H](O)[C@H](Cc1ccccc1)NC(=O)[C@H](CC(N)=O)NC(=O)c1ccc2ccccc2n1 [Saquinavir, saquinavir, reference compound]
pIC50 (HIV-1RF; Human immunodeficiency virus 1, CEM-SS): 8.70 | CC50 (in vitro): > 0.1 µM

CCC[C@@]1(CCc2ccccc2)CC(O)=C([C@H](CC)c2cccc(NS(=O)(=O)c3ccc(C(F)(F)F)cn3)c2)C(=O)O1 [Tipranavir, tipranavir, reference compound]
pEC50 (HIV-1RF; Human immunodeficiency virus 1, CEM-SS, Table 5, tipranavir conjugates in cell-based assay, read-out: CEM-SS/HIV-1RF EC50): 6.92 | CC50 (in vitro): 30.6 µM | pIC50 (retroviral protease; IC50, Table 6, tipranavir conjugates in cell-free assay): 8.14

COCCOCCOCCOC(=O)NC(C(=O)NC(Cc1ccccc1)C(O)CN(Cc1ccc(-c2ccccn2)cc1)NC(=O)C(NC(=O)OCCOCCOCCOC)C(C)(C)C)C(C)(C)C (stereo not shown) [di-mPEG-3-Atazanavir, di-mPEG3-Atazanavir]
pEC50 (HIV-1RF; [4]): 7.42 | pEC50 (HIV-1RF; [5]): 7.42 | CC50 (in vitro): 95.7 µM | IC90 (retroviral protease): 0.0537 µM | pIC50 (retroviral protease; [6]): 7.90 | IC50-fold change (retroviral protease; Table 3, cell-free assay): 1.8 | IC90 fold change (retroviral protease; Table 3, cell-free assay): 1.7

COCCOCCOCCOCCOCCOCCOCCOC(=O)NC(C(=O)NC(Cc1ccccc1)C(O)CN(Cc1ccc(-c2ccccn2)cc1)NC(=O)C(NC(=O)OCCOCCOCCOCCOCCOCCOCCOC)C(C)(C)C)C(C)(C)C (stereo not shown) [di-mPEG-7-Atazanavir, di-mPEG7-Atazanavir]
pEC50 (HIV-1RF; [4]): 5.08 | pEC50 (HIV-1RF; [5]): 5.08 | CC50 (in vitro): > 200 µM | CC50 (CEM-SS cells; human): > 200 µM | IC90 (retroviral protease): 0.0399 µM | pIC50 (retroviral protease; [6]): 7.96 | IC50-fold change (retroviral protease; Table 3, cell-free assay): 1.6 | IC90 fold change (retroviral protease; Table 3, cell-free assay): 1.3

di-mPEG5-Atazanavir [di-mPEG-5-Atazanavir]
pEC50 (HIV-1RF; [2]): 5.96 | pEC50 (HIV-1RF; [3]): 5.96 | CC50 (CEM-SS cells): > 200 µM | pIC50 (retroviral protease; [7]): 7.76 | IC90 (retroviral protease; [8]): 0.0476 µM | IC50-fold change (retroviral protease; Table 3, cell-free assay): 2.5 | IC90 fold change (retroviral protease; Table 3, cell-free assay): 1.5

di-mPEG6-Atazanavir [di-mPEG-6-Atazanavir]
pEC50 (HIV-1RF; [2]): 5.60 | pEC50 (HIV-1RF; [3]): 5.60 | CC50 (CEM-SS cells): 159 µM | pIC50 (retroviral protease; [7]): 7.81 | IC90 (retroviral protease; [8]): 0.0678 µM | IC50-fold change (retroviral protease; Table 3, cell-free assay): 2.3 | IC90 fold change (retroviral protease; Table 3, cell-free assay): 2.1
